{"source": "patent US11292807B2", "about": "(OCEANS LTD., priority 2015, dated 2022)", "system": "CCD1079SK (fibroblast, noncancerous but proliferating)", "assay": "CIMA assay, cell viability, CCD1079SK", "conditions": "CCD", "key": {"[1]": {"conditions": "10 ug/mL, listed as 174-13-14-3"}, "[2]": {"conditions": "50 ug/mL, listed as 174-13-14-3"}, "[3]": {"conditions": "100 ug/mL, listed as 174-13-14-3"}}}
{"smiles": "CC/C=C\\C/C=C\\C/C=C\\C/C=C\\C/C=C\\CCCC(=O)OCC(COC1OC(CO)C(O)C(O)C1O)OC(=O)CCCCCCCCCCCCCCC", "note": "(stereo not drawn) [Compound 2, MGDG C20:5/C16:0]", "values": [{"measurement": "Fold change in viability AVG", "setting": "1 ug/mL, listed as 169-14-15-4", "value": 1.18}, {"measurement": "Average cell viability", "setting": "1 ug/mL, listed as 174-13-14-3", "value": 101, "unit": "%"}, {"measurement": "Fold change in viability AVG", "setting": "1 ug/mL, listed as 174-13-14-3", "value": 1.11}, {"measurement": "Fold change in viability AVG", "setting": "10 ug/mL, listed as 169-14-15-4", "value": 1.08}, {"measurement": "Average cell viability", "setting": "[1]", "value": 89, "unit": "%"}, {"measurement": "Fold change in viability AVG", "setting": "[1]", "value": 0.98}, {"measurement": "Fold change in viability AVG", "setting": "50 ug/mL, listed as 169-14-15-4", "value": 0.36}, {"measurement": "Average cell viability", "setting": "[2]", "value": 20, "unit": "%"}, {"measurement": "Fold change in viability AVG", "setting": "[2]", "value": 0.22}, {"measurement": "Fold change in viability AVG", "setting": "100 ug/mL, listed as 169-14-15-4", "value": 0.14}, {"measurement": "Average cell viability", "setting": "[3]", "value": 14, "unit": "%"}, {"measurement": "Fold change in viability AVG", "setting": "[3]", "value": 0.15}]}
